Tests used:
Assay type in all cases: in vivo
[1] = test system: Italian ryegrass (Lolium multiflorum); test: Test A preemergence, visual plant response rating; settings: for Ryegrass, Italian plant response rating: 125 g ai/ha, preemergence, 0 to 100 scale, 0 no effect, 100 complete control; for Ryegrass, Italian plant response rating (0 to 100 scale): 500 g ai/ha Preemergence, approx. 10 days
Method in brief: (§1)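 Greenhouse pot test in loam–sand soil mix: compound in a surfactant-containing non-phytotoxic solvent applied preemergence (directed soil spray) or postemergence (one- to two-leaf plants, 2–10 cm). Injury scored visually after ~10 days, 0–100.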

[2] = test system: barnyardgrass (Echinochloa crus-galli); test: Test A preemergence, visual plant response rating; settings: for Barnyardgrass plant response rating: 125 g ai/ha, preemergence, 0 to 100 scale, 0 no effect, 100 complete control; for Barnyardgrass plant response rating (0 to 100 scale): 500 g ai/ha Preemergence, approx. 10 days
Method in brief: as §1

[3] = test system: foxtail, giant (giant foxtail, Setaria faberii); test: Test A preemergence, visual plant response rating; settings: for Foxtail, Giant plant response rating: 125 g ai/ha, preemergence, 0 to 100 scale, 0 no effect, 100 complete control; for Foxtail, Giant plant response rating (0 to 100 scale): 500 g ai/ha Preemergence, approx. 10 days
Method in brief: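 Preemergence: seeds in loam/sand blend given directed soil spray of compound in non-phytotoxic solvent with surfactant. Postemergence: plants 2–10 cm, one- to two-leaf stage, sprayed with same formulation. Visual injury rated vs untreated controls after ~10 days in greenhouse, 0 (no effect) to 100 (complete control).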

kochia (Kochia scoparia) [4] = test: Test A preemergence, visual plant response rating; settings: for Kochia plant response rating: 125 g ai/ha, preemergence, 0 to 100 scale, 0 no effect, 100 complete control; for Kochia plant response rating (0 to 100 scale): 500 g ai/ha Preemergence, approx. 10 days
Method in brief: as §1

[5] = test system: pigweed (Amaranthus retroflexus); test: Test A preemergence, visual plant response rating; settings: for Pigweed plant response rating: 125 g ai/ha, preemergence, 0 to 100 scale, 0 no effect, 100 complete control; for Pigweed plant response rating (0 to 100 scale): 500 g ai/ha Preemergence, approx. 10 days
Method in brief: as §1

[6] = test system: ragweed (common ragweed, Ambrosia elatior); test: Test A preemergence, visual plant response rating; settings: for Ragweed plant response rating: 125 g ai/ha, preemergence, 0 to 100 scale, 0 no effect, 100 complete control; for Ragweed plant response rating (0 to 100 scale): 500 g ai/ha Preemergence, approx. 10 days
Method in brief: as §1

[7] = test system: Italian ryegrass (Lolium multiflorum); test: Test A postemergence, visual plant response rating; settings: for Ryegrass, Italian plant response rating (0 to 100 scale): 500 g ai/ha, postemergence, 0 is no effect, 100 is complete control; for Ryegrass, Italian plant response rating: Postemergence, 125 g ai/ha, 0 to 100 scale (0 no effect, 100 complete control)
Method in brief: as §1

[8] = test system: barnyardgrass (Echinochloa crus-galli); test: Test A postemergence, visual plant response rating; settings: for Barnyardgrass plant response rating (0 to 100 scale): 500 g ai/ha, postemergence, 0 is no effect, 100 is complete control; for Barnyardgrass plant response rating: Postemergence, 125 g ai/ha, 0 to 100 scale (0 no effect, 100 complete control)
Method in brief: as §1

[9] = test system: blackgrass (Alopecurus myosuroides); test: Test A postemergence, visual plant response rating; settings: for Blackgrass plant response rating (0 to 100 scale): 500 g ai/ha, postemergence, 0 is no effect, 100 is complete control; for Blackgrass plant response rating: Postemergence, 125 g ai/ha, 0 to 100 scale (0 no effect, 100 complete control)
Method in brief: as §1

corn (Zea mays) = test: Test A postemergence, visual plant response rating; settings: for Corn plant response rating (0 to 100 scale): 500 g ai/ha, postemergence, 0 is no effect, 100 is complete control; for Corn plant response rating: Postemergence, 125 g ai/ha, 0 to 100 scale (0 no effect, 100 complete control)
Method in brief: as §1

[10] = test system: foxtail, giant (giant foxtail, Setaria faberii); test: Test A postemergence, visual plant response rating; settings: for Foxtail, Giant plant response rating (0 to 100 scale): 500 g ai/ha, postemergence, 0 is no effect, 100 is complete control; for Foxtail, Giant plant response rating: Postemergence, 125 g ai/ha, 0 to 100 scale (0 no effect, 100 complete control)
Method in brief: as §1

[11] = test system: galium (catchweed bedstraw, Galium aparine); test: Test A postemergence, visual plant response rating; settings: for Galium plant response rating (0 to 100 scale): 500 g ai/ha, postemergence, 0 is no effect, 100 is complete control; for Galium plant response rating: Postemergence, 125 g ai/ha, 0 to 100 scale (0 no effect, 100 complete control)
Method in brief: as §1

kochia (Kochia scoparia) [12] = test: Test A postemergence, visual plant response rating; settings: for Kochia plant response rating (0 to 100 scale): 500 g ai/ha, postemergence, 0 is no effect, 100 is complete control; for Kochia plant response rating: Postemergence, 125 g ai/ha, 0 to 100 scale (0 no effect, 100 complete control)
Method in brief: as §1

[13] = test system: pigweed (Amaranthus retroflexus); test: Test A postemergence, visual plant response rating; settings: for Pigweed plant response rating (0 to 100 scale): 500 g ai/ha, postemergence, 0 is no effect, 100 is complete control; for Pigweed plant response rating: Postemergence, 125 g ai/ha, 0 to 100 scale (0 no effect, 100 complete control)
Method in brief: as §1

[14] = test system: ragweed (common ragweed, Ambrosia elatior); test: Test A postemergence, visual plant response rating; settings: for Ragweed plant response rating (0 to 100 scale): 500 g ai/ha, postemergence, 0 is no effect, 100 is complete control; for Ragweed plant response rating: Postemergence, 125 g ai/ha, 0 to 100 scale (0 no effect, 100 complete control)
Method in brief: as §1

[15] = test system: wheat (Triticum aestivum); test: Test A postemergence, visual plant response rating; settings: for Wheat plant response rating (0 to 100 scale): 500 g ai/ha, postemergence, 0 is no effect, 100 is complete control; for Wheat plant response rating: Postemergence, 125 g ai/ha, 0 to 100 scale (0 no effect, 100 complete control)
Method in brief: as §1

[16] = test system: barnyardgrass (Echinochloa crus-galli); test: Test B flooded paddy test, visual plant response rating; settings: 250 g ai/ha, Flood, applied to paddy water, 2-leaf stage, evaluated after 13 to 15 days
Method in brief: (§2)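 Rice, umbrella sedge, ducksalad and barnyardgrass grown to 2-leaf stage; pots flooded 3 cm above soil and compound applied directly to paddy water, depth maintained.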

[17] = test system: ducksalad (Heteranhera limosa); test: as above; settings: 250 g ai/ha, Flood, applied to paddy water, 2-leaf stage, evaluated after 13 to 15 days
Method in brief: as §2

rice (Oryza sativa) = test: as above; settings: 250 g ai/ha, Flood, applied to paddy water, 2-leaf stage, evaluated after 13 to 15 days
Method in brief: as §2

[18] = test system: sedge, umbrella (small-flower umbrella sedge, Cyperus difformis); test: as above; settings: 250 g ai/ha, Flood, applied to paddy water, 2-leaf stage, evaluated after 13 to 15 days
Method in brief: as §2

Compound | Ryegrass, Italian plant response rating [1] | Ryegrass, Italian plant response rating (0 to 100 scale) [1] | Barnyardgrass plant response rating [2] | Barnyardgrass plant response rating (0 to 100 scale) [2] | Foxtail, Giant plant response rating [3] | Foxtail, Giant plant response rating (0 to 100 scale) [3] | Kochia plant response rating (kochia (Kochia scoparia) [4]) | Kochia plant response rating (0 to 100 scale) (kochia (Kochia scoparia) [4]) | Pigweed plant response rating [5] | Pigweed plant response rating (0 to 100 scale) [5] | Ragweed plant response rating [6] | Ragweed plant response rating (0 to 100 scale) [6] | Ryegrass, Italian plant response rating (0 to 100 scale) [7] | Ryegrass, Italian plant response rating [7] | Barnyardgrass plant response rating (0 to 100 scale) [8] | Barnyardgrass plant response rating [8] | Blackgrass plant response rating (0 to 100 scale) [9] | Blackgrass plant response rating [9] | Corn plant response rating (0 to 100 scale) (corn (Zea mays)) | Corn plant response rating (corn (Zea mays)) | other results
CCCc1ccccc1/C(=N\OC)c1c(O)c(C)nn(C)c1=O [Compound 92] | 40 | 80 | 30 | 60 | 70 | 80 | 0 | 10 | 30 | 90 | 20 | 30 | 60 | 50 | 40 | 20 | 70 | 20 | 10 | 0 | Foxtail, Giant plant response rating (0 to 100 scale) [10]: 60; Foxtail, Giant plant response rating [10]: 50; Galium plant response rating (0 to 100 scale) [11]: 70; Galium plant response rating [11]: 70; Kochia plant response rating (0 to 100 scale) (kochia (Kochia scoparia) [12]): 60; Kochia plant response rating (kochia (Kochia scoparia) [12]): 30; Pigweed plant response rating (0 to 100 scale) [13]: 80; Pigweed plant response rating [13]: 60; Ragweed plant response rating (0 to 100 scale) [14]: 70; Ragweed plant response rating [14]: 60; Wheat plant response rating (0 to 100 scale) [15]: 0; Wheat plant response rating [15]: 0; Plant response rating, Barnyardgrass (0 to 100 scale, 0 is no effect, 100 is complete control) [16]: 0; Plant response rating, Ducksalad (0 to 100 scale, 0 is no effect, 100 is complete control) [17]: 0; Plant response rating, Rice (0 to 100 scale, 0 is no effect, 100 is complete control) (rice (Oryza sativa)): 0; Plant response rating, Sedge, Umbrella (0 to 100 scale, 0 is no effect, 100 is complete control) [18]: 0
CO/N=C(\c1ccsc1C)c1c(O)c(C)nn(C)c1=O [Compound 43] | 0 | 0 | 0 | 0 | 0 | 0 | 0 | 0 | 0 | 30 | 0 | 20 | 30 | 0 | 0 | 0 | 20 | 0 | 0 | 0 | Foxtail, Giant plant response rating (0 to 100 scale) [10]: 0; Foxtail, Giant plant response rating [10]: 0; Galium plant response rating (0 to 100 scale) [11]: 50; Galium plant response rating [11]: 20; Kochia plant response rating (0 to 100 scale) (kochia (Kochia scoparia) [12]): 20; Kochia plant response rating (kochia (Kochia scoparia) [12]): 0; Pigweed plant response rating (0 to 100 scale) [13]: 60; Pigweed plant response rating [13]: 20; Ragweed plant response rating (0 to 100 scale) [14]: 30; Ragweed plant response rating [14]: 20; Wheat plant response rating (0 to 100 scale) [15]: 0; Wheat plant response rating [15]: 0; Plant response rating, Barnyardgrass (0 to 100 scale, 0 is no effect, 100 is complete control) [16]: 0; Plant response rating, Ducksalad (0 to 100 scale, 0 is no effect, 100 is complete control) [17]: 0; Plant response rating, Rice (0 to 100 scale, 0 is no effect, 100 is complete control) (rice (Oryza sativa)): 0; Plant response rating, Sedge, Umbrella (0 to 100 scale, 0 is no effect, 100 is complete control) [18]: 0
CCc1cccc(C(=NOC)c2c(O)c(C)nn(C)c2=O)c1 [Compound 36] | 30 | 50 | 10 | 20 | 0 | 50 | 10 | 50 | 10 | 30 | 10 | 70 | 50 | 30 | 0 | 0 | 20 | 10 | 0 | 20 | Foxtail, Giant plant response rating (0 to 100 scale) [10]: 10; Foxtail, Giant plant response rating [10]: 0; Galium plant response rating (0 to 100 scale) [11]: 70; Galium plant response rating [11]: 50; Kochia plant response rating (0 to 100 scale) (kochia (Kochia scoparia) [12]): 70; Kochia plant response rating (kochia (Kochia scoparia) [12]): 60; Pigweed plant response rating (0 to 100 scale) [13]: 70; Pigweed plant response rating [13]: 20; Ragweed plant response rating (0 to 100 scale) [14]: 80; Ragweed plant response rating [14]: 70; Wheat plant response rating (0 to 100 scale) [15]: 0; Wheat plant response rating [15]: 0; Plant response rating, Barnyardgrass (0 to 100 scale, 0 is no effect, 100 is complete control) [16]: 0; Plant response rating, Ducksalad (0 to 100 scale, 0 is no effect, 100 is complete control) [17]: 0; Plant response rating, Rice (0 to 100 scale, 0 is no effect, 100 is complete control) (rice (Oryza sativa)): 0; Plant response rating, Sedge, Umbrella (0 to 100 scale, 0 is no effect, 100 is complete control) [18]: 0

Reference: patent US20210045385A1, “PYRIDAZINONE-SUBSTITUTED KETOXIMES AS HERBICIDES” (FMC Corporation, priority 2018, published 2021)
